Assay results published in US9567345B2, “Pharmaceutically active pyrazolo-triazine derivatives” (LEAD DISCOVERY CENTER GMBH, priority 2012, dated 2017).
Read-outs that look alike come from different tables or passages of the source.

How the values were obtained:
Assay type in all cases: biochemical
[1] = molecular target: T1, CDK2/CycA (Homo sapiens, UniProt P24941); experiment: CDK2 Enzymatic Activity Assay (Lance Kinase Activity Assay, FRET)
T1 construct: purchased Proqinase
Experimental: This protocol describes how the Lance Kinase Activity Assay was performed to determine IC50 values of compounds of general formula (I) against CDK/Cyclin complexes. The principle behind this enzymatic assay is based upon the phosphorylation of the Ulight-Peptide Substrat. It is detected by using a specific EU-labeled anti-phospho peptide antibody.
Binding of an inhibitor to the kinase prevents phosphorylation of the Ulight-MBP Substrat, resulting in a loss of FRET.
CDK2 Enzymatic Activity Assay
The compounds of general formula (I) exemplary summarized in Table 1 were diluted from a 10 mM DMSO stock solution 1:10 in a total volume of 15 μl DMSO. This compound predilution was then serial diluted 1:3 over 8 steps in DMSO and briefly spun down. Each compound solution was now diluted 1:20 in Enzymatic Buffer (HEPES: 50 mM, pH: 7.5; MgCl2: 10 mM; EGTA: 1 mM; DTT: 2 mM; Tween-20: 0.01%), mixed thoroughly and spun down.
For positive controls, 2 μl of DMSO working solution were mixed with 6 μl CDK2/CycA/substrate working solution and 2 μl ATP working solution. Positive and negative controls were calculated from at least 8 different wells. The 384 well plates were mixed in a Teleshaker plate mixer (Beckman Coulter, Brea, Calif., USA) at 2000 rpm for 40 sec, and incubated for 1 h at room temperature before addition of 10 μl LANCE Detection Buffer (EDTA: […]; Eu-Anti-P-MBP: 4 nM) per well. Plates were mixed in a Teleshaker plate mixer (Beckman Coulter, Brea, Calif., USA) at 2000 rpm for 40 sec, followed by incubation with Detection Buffer for 1 h, and reading. […] IC50 values were determined from the sigmoidal dose response curves with the software Quattro Workflow (Quattro GmbH, Munich, Germany).

[2] = molecular target: CDK7/CycH/Mat1 (Homo sapiens, UniProt P50613); experiment: CDK7 Enzymatic Activity Assay (Lance Kinase Activity Assay, FRET)
CDK7/CycH/Mat1, sequence (P50613 whole entry): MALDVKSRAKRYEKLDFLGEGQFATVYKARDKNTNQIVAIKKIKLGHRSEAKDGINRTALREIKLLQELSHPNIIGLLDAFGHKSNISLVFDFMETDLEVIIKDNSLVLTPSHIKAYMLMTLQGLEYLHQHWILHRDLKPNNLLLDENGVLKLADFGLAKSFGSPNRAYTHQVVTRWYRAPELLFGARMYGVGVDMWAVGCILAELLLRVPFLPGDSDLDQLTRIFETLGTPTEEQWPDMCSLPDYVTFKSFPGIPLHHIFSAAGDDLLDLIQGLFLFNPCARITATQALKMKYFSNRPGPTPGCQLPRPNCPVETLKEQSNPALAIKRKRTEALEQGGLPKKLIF
Method in brief: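 Ulight-MBP peptide phosphorylation by CDK7/CycH/Mat1 in HEPES 50 mM pH 7.5, MgCl2, EGTA, DTT, Tween-20; 1 h at room temperature, then EDTA stop with Eu-anti-phospho-MBP antibody for 1 h and TR-FRET read. Compounds in 8-point 1:3 DMSO series; IC50 from sigmoidal dose-response fit.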

[3] = molecular target: CDK9/Cyclin T1 (Homo sapiens, UniProt P50750); experiment: CDK9 Enzymatic Activity Assay (Lance Kinase Activity Assay, FRET)
CDK9/Cyclin T1, sequence (P50750 whole entry): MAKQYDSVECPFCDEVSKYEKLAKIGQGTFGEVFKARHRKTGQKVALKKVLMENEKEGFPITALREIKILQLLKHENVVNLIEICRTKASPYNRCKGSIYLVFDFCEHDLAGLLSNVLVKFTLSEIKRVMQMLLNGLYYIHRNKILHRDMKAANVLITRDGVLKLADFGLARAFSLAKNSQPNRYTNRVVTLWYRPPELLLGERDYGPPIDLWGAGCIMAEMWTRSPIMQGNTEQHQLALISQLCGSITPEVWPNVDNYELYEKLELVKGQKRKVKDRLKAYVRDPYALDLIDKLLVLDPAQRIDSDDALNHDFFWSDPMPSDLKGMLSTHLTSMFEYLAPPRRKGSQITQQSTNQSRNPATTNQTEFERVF
CDK9/Cyclin T1, sequence (O60563 whole entry partner): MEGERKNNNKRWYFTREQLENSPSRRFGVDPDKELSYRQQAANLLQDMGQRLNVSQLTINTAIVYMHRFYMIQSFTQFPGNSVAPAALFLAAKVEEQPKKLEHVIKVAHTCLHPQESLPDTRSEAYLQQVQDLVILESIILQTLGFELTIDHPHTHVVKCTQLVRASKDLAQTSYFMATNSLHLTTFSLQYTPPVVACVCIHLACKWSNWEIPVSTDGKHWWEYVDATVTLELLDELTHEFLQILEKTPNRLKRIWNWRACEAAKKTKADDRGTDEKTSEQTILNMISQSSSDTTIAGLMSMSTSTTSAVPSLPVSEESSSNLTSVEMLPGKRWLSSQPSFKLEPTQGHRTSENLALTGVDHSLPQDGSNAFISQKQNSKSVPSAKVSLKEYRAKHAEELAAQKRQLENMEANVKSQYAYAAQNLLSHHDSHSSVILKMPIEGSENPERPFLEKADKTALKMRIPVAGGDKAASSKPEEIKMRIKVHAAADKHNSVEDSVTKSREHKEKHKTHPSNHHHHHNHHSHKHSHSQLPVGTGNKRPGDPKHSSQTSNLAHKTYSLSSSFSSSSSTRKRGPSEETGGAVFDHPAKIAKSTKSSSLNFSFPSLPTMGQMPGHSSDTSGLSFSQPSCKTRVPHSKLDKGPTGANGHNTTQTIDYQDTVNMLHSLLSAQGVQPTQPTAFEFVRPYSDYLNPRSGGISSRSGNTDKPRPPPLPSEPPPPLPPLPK
Method in brief: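 CDK9/cyclin T1 phosphorylation of a ULight-MBP peptide was run for 1 h at room temperature in pH 7.5 HEPES buffer with MgCl2, EGTA, DTT and Tween-20. It was followed by 1 h with Eu-anti-phospho-MBP antibody (4 nM) in EDTA detection buffer. TR-FRET loss gave IC50 from 8-point, 1:3 sigmoidal dose-response curves.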

[4] = Table 5B, class symbols per IC50 [nM] ranges of b581, read-out: CDK2: Selectivity of CDK7 inhibition over CDK2 inhibition
[5] = CDK7/CycH/Mat1, 25 μM ATP final, class ranges, read-out: CDK7: IC50 [nM] for CDK7 inhibition
[6] = Table 5B, class symbols per IC50 [nM] ranges of b581, read-out: CDK9: Selectivity of CDK7 inhibition over CDK9 inhibition

IC50 [1, 4] [nM]	IC50 [2, 5] [nM]	IC50 [3, 6] [nM]	SMILES	further results
50 to 500	< 5	500 to 2500	CC(C)c1cnn2c(NCc3ccccc3-c3cccs3)nc(O[C@@H]3CCNC3)nc12 [(VII-13), (R)-8-isopropyl-2-(pyrrolidin-3-yloxy)-N-(2-(thiophen-2-yl)benzyl)pyrazolo[1,5-a][1,3,5]triazin-4-amine]	–
50 to 500	< 5	500 to 2500	CC(C)c1cnn2c(NCc3ccccc3-c3cccs3)nc(OC3CCNCC3)nc12 [(VII-14), 8-isopropyl-2-(piperidin-4-yloxy)-N-(2-(thiophen-2-yl)benzyl)pyrazolo[1,5-a][1,3,5]triazin-4-amine]	–
500 to 2500	< 5	> 2500	CC(C)Oc1ccccc1CNc1nc(O[C@@H]2CCNC2)nc2c(C(C)C)cnn12 [(VII-16), (R)-N-(2-isopropoxybenzyl)-8-isopropyl-2-(pyrrolidin-3-yloxy)pyrazolo[1,5-a][1,3,5]triazin-4-amine]	–
50 to 500	< 5	500 to 2500	CC(C)Oc1ccccc1CNc1nc(O[C@@H]2CCCNC2)nc2c(C(C)C)cnn12 [(VII-18), (R)-N-(2-isopropoxybenzyl)-8-isopropyl-2-(piperidin-3-yloxy)pyrazolo[1,5-a][1,3,5]triazin-4-amine]	–
< 50	< 5	500 to 2500	CC(C)c1cnn2c(NCc3ccccc3-n3cncn3)nc(O[C@@H]3CCNC3)nc12 [(VII-21), (R)-N-(2-(1H-1,2,4-triazol-1-yl)benzyl)-8-isopropyl-2-(pyrrolidin-3-yloxy)pyrazolo[1,5-a][1,3,5]triazin-4-amine]	–
50 to 500	< 5	500 to 2500	CC(C)c1cnn2c(NCc3ccccc3-n3cncn3)nc(OC3CCNCC3)nc12 [(VII-22), N-(2-(1H-1,2,4-triazol-1-yl)benzyl)-8-isopropyl-2-(piperidin-4-yloxy)pyrazolo[1,5-a][1,3,5]triazin-4-amine]	–
50 to 500	< 5	50 to 500	CC(C)c1cnn2c(NCc3ccccc3-n3ccnc3)nc(O[C@@H]3CCCNC3)nc12 [(VII-26), (R)-N-(2-(1H-imidazol-1-yl)benzyl)-8-isopropyl-2-(piperidin-3-yloxy)pyrazolo[1,5-a][1,3,5]triazin-4-amine]	–
50 to 500	< 5	50 to 500	CC(C)c1cnn2c(NCc3ccccc3-n3ccnc3)nc(O[C@@H]3CCNC3)nc12 [(VII-27), (R)-N-(2-(1H-imidazol-1-yl)benzyl)-8-isopropyl-2-(pyrrolidin-3-yloxy)pyrazolo[1,5-a][1,3,5]triazin-4-amine]	–
50 to 500	< 5	> 2500	CC(C)c1cnn2c(NCc3ccccc3-c3nnnn3C)nc(O[C@@H]3CCCNC3)nc12 [(VII-29), (R)-8-isopropyl-N-(2-(1-methyl-1H-tetrazol-5-yl)benzyl)-2-(piperidin-3-yloxy)pyrazolo[1,5-a][1,3,5]triazin-4-amine]	Selectivity CDK7 over CDK2 ([1]; Table 6): 394 fold; IC50 ([2]; Table 6, read-out: IC50 CDK7): < 5 nM; Selectivity CDK7 over CDK9 ([3]; Table 6): 3255 fold
500 to 2500	< 5	< 50	CC(C)c1cnn2c(NCc3cccc4c3ccc[n+]4[O-])nc(O[C@@H]3CCCNC3)nc12 [(VII-30), (R)-5-(((8-isopropyl-2-(piperidin-3-yloxy)pyrazolo[1,5-a][1,3,5]triazin-4-yl)amino)methyl)quinoline 1-oxide]	–
50 to 500	< 5	< 50	CC(C)c1cnn2c(NCc3cccc4ccncc34)nc(O[C@@H]3CCCNC3)nc12 [(VII-31), (R)-8-isopropyl-N-(isoquinolin-8-ylmethyl)-2-(piperidin-3-yloxy)pyrazolo[1,5-a][1,3,5]triazin-4-amine]	–
50 to 500	< 5	50 to 500	CC(C)c1cnn2c(NCc3cccc4cc[n+]([O-])cc34)nc(O[C@@H]3CCCNC3)nc12 [(VII-32), (R)-8-(((8-isopropyl-2-(piperidin-3-yloxy)pyrazolo[1,5-a][1,3,5]triazin-4-yl)amino)methyl)isoquinoline 2-oxide]	–
< 50	< 5	< 50	CC(C)c1cnn2c(NCc3cccc4c3cnn4C)nc(O[C@@H]3CCCNC3)nc12 [(VII-33), (R)-8-isopropyl-N-((1-methyl-1H-indazol-4-yl)methyl)-2-(piperidin-3-yloxy)pyrazolo[1,5-a][1,3,5]triazin-4-amine]	–
50 to 500	< 5	500 to 2500	CC(C)c1cnn2c(NCc3ccccc3-c3ccccn3)nc(O[C@@H]3CCCNC3)nc12 [(VII-34), (R)-8-isopropyl-2-(piperidin-3-yloxy)-N-(2-(pyridin-2-yl)benzyl)pyrazolo[1,5-a][1,3,5]triazin-4-amine]	–
50 to 500	< 5	50 to 500	CC(C)c1cnn2c(NCc3cccc4cccnc34)nc(O[C@@H]3CCCNC3)nc12 [(VII-35), (R)-8-isopropyl-2-(piperidin-3-yloxy)-N-(quinolin-8-ylmethyl)pyrazolo[1,5-a][1,3,5]triazin-4-amine]	–
< 50	< 5	< 50	CC(C)c1cnn2c(NCc3cccc4[nH]ncc34)nc(O[C@@H]3CCCNC3)nc12 [(VII-36), (R)-N-((1H-indazol-4-yl)methyl)-8-isopropyl-2-(piperidin-3-yloxy)pyrazolo[1,5-a][1,3,5]triazin-4-amine]	–
< 50	< 5	> 2500	CC(C)c1cnn2c(NCc3ccccc3-c3nnn(C)n3)nc(O[C@@H]3CCCNC3)nc12 [(VII-37), (R)-8-isopropyl-N-(2-(2-methyl-2H-tetrazol-5-yl)benzyl)-2-(piperidin-3-yloxy)pyrazolo[1,5-a][1,3,5]triazin-4-amine]	–
50 to 500	< 5	500 to 2500	CC(C)c1cnn2c(NCc3ccccc3S(=O)(=O)N(C)C)nc(O[C@@H]3CCCNC3)nc12 [(VII-38), (R)-2-(((8-isopropyl-2-(piperidin-3-yloxy)pyrazolo[1,5-a][1,3,5]triazin-4-yl)amino)methyl)-N,N-dimethylbenzenesulfonamide]	Selectivity CDK7 over CDK2 ([1]; Table 7): 342 fold; IC50 ([1]; Table 7, read-out: IC50 CDK2): 50 to 500 nM; IC50 ([2]; Table 7, read-out: IC50 CDK7): < 5 nM; Selectivity CDK7 over CDK9 ([3]; Table 7): 2733 fold; IC50 ([3]; Table 7, read-out: IC50 CDK9): 500 to 2500 nM
50 to 500	< 5	> 2500	CC(C)c1cnn2c(NCc3ccccc3N3CCCC3=O)nc(O[C@@H]3CCCNC3)nc12 [(VII-39), (R)-1-(2-(((8-isopropyl-2-(piperidin-3-yloxy)pyrazolo[1,5-a][1,3,5]triazin-4-yl)amino)methyl)phenyl)pyrrolidin-2-one]	–
< 50	< 5	50 to 500	CC(C)c1cnn2c(NCc3cc(F)ccc3-n3cccn3)nc(O[C@@H]3CCCNC3)nc12 [(VII-41), (R)-N-(5-fluoro-2-(1H-pyrazol-1-yl)benzyl)-8-isopropyl-2-(piperidin-3-yloxy)pyrazolo[1,5-a][1,3,5]triazin-4-amine]	–
< 50	< 5	50 to 500	CC(C)c1cnn2c(NCc3cccc(F)c3-n3cccn3)nc(O[C@@H]3CCCNC3)nc12 [(VII-42), (R)-N-(3-fluoro-2-(1H-pyrazol-1-yl)benzyl)-8-isopropyl-2-(piperidin-3-yloxy)pyrazolo[1,5-a][1,3,5]triazin-4-amine]	–
